We go through one compound from US6482799B1, “Self-preserving multipurpose ophthalmic solutions incorporating a polypeptide antimicrobial” (The Regents of the University of California, priority 1999, dated 2002).

Test [1] relates to Staphylococcus aureus (ATCC 6538). Kind of test: MIC / log kill assay, FDA 510(k) stand-alone procedure. Format: cell-based. The conditions noted are these: for log kill: 12.5 μg/ml. The method, then:
(§1) The supernatant was discarded and the wash repeated.
(§2) The tube was inverted to dissolve the polypeptide. […] Solutions were used immediately or stored at −20° C.
(§3) The purpose of this experiment was to determine whether additives such as surfactants (pluronic) and chelating agents (EDTA) would effect L-IND activity. The concentrations selected for each organism tested ( S. aureus and P. aeruginosa) were based on the L-IND MIC for that organism. A lower concentration was also selected to determine whether the additives enhanced the antimicrobial activity of L-IND. Concentrations of L-IND ranged from 3.12 to 50 μg/ml. The concentration of sodium phosphate (SP) buffer was also examined and ranged from 1 to 10 mM.
(§4) A full factorial experimental design was used with 5 factors at 2 levels: 1) Exposure time (1 hr, 4hr); 2) SP buffer concentration, pH 7.4 (1 mM, 10 mM); 3) Surfactant concentration (0.25 wt %, 0.5 wt %); 4) EDTA concentration (0.1 wt %, 0.2 wt %); and 5) L-IND concentration (MIC and lower).
(§5) As described in the MIC procedure (Example 10), cultures were exposed to solutions containing various combinations of the above components for 1 or 4 hr at room temperature. Appropriate controls were conducted to evaluate the effects of individual components. Each replicate (assay done in triplicate) was then diluted 10-fold in NaCl and plated onto Mueller-Hinton agar. Colonies were then counted and log kill, effects of each additive, SP buffer concentration, and length of exposure on L-IND activity were examined. […]

In test [2] the test system is Pseudomonas aeruginosa (ATCC 9027). Described as above. Type of test: cell-based. The method, then: as §1, §2, §3, §4, §5
Test [3] has as its system P. aeruginosa (ATCC 27853). Briefly: Protocol 3 time-dependent antimicrobial activity at one dose level. Format: cell-based, Pseudomonas aeruginosa. Particulars: for Bacterial growth, Buffer and L-indolicidin 50 μg/ml: 100 mM sodium phosphate buffer. On the procedure:
The objective of this protocol is to establish a procedure for determining the antimicrobial activity of indolicidin (e.g., L-IND) at 50 μg/ml over an extended exposure time up to 24 hours at room temperature. It is believed that this procedure more closely mimics the recommended use of lens-care products.
Exposure of the test organism to indolicidin occurs in a buffered solution for up to 24 hours with sampling for viability at different time intervals. Polypropylene 96-well microtiter plates and microcentrifuge tubes are used for exposure and dilution of indolicidin, respectively.
The following materials are used: sterile glass tubes containing 5 ml of Mueller-Hinton Broth (MHB), Mueller-Hinton agar plates, sterile 96-well polypropylene microtiter plates, and sterile polypropylene microcentrifuge tubes.
One or more of the following microorganisms are used in assays using this protocol or modification of this protocol: Pseudomonas aeruginosa (ATCC 9027), Pseudomonas aeruginosa (ATCC 27853), and S. aureus (ATCC 6538).
Five 5 ml of MHB tubes are innoculated with the tester strain(s) from MHA plates and grown overnight at 37° C. on a shaker (180 rpm). A micropipet tip is prewet for at least 2 minutes with 100 μl of the stock solution of indolicidin (e.g., L-IND). The test article is dispensed back in the stock solution vial and the pipette is reset to a volume of 10 μl. Polypropylene microcentrifuge tubes are used to dilute the stock of indolicidin (10 mg/ml) 10-fold in sterile water. To obtain a 10× solution of indolicidin with a dose level equivalent to 50 μg/ml dose level dilute 10 μl of the stock solution of indolicidin in 90 μl of sterile water. (The concentration of indolicidin in the final exposure volume of 100 μl will be 5 μg when 10 μl of the 10× solution is added to 100 μl of bacterial suspension). […]
Survival is determined by counting the colonies appearing on plates after overnight incubation at 37° C. The results are expressed as CFU/ml and survival is expressed as the percent of the bacteria that survived the treatment. […]

On to `CC[C@H](C)[C@H](N)C(=O)N[C@@H](CC(C)C)C(=O)N1CCC[C@H]1C(=O)N[C@@H](Cc1c[nH]c2ccccc12)C(=O)N[C@@H](CCCCN)C(=O)N[C@@H](Cc1c[nH]c2ccccc12)C(=O)N1CCC[C@H]1C(=O)N[C@@H](Cc1c[nH]c2ccccc12)C(=O)N[C@@H](Cc1c[nH]c2ccccc12)C(=O)N1CCC[C@H]1C(=O)N[C@@H](Cc1c[nH]c2ccccc12)C(=O)N[C@@H](CCCNC(=N)N)C(=O)N[C@@H](CCCNC(=N)N)C(N)=O` [L-indolicidin, H2N-ILPWKWPWWPWRR-CONH2], for which the log kill is 6 log in test [1] (1 mM SP buffer, pluronic and EDTA at either concentration); 6 log in test [1] (10 mM SP, without pluronic). Besides, the “effect of EDTA on activity” value in test [1] (10 mM SP, EDTA 0.1 or 0.2 wt %) is on record as “no effect”. Besides, the inhibition in kill result in test [1] (0.5 wt % pluronic, SP at 5 mM) is on record as “approximately 4 log”; in test [1] (32 μ/ml, pluronic and 10 mM SP buffer), above 3 log; in test [2] (pluronic in 1 mM SP buffer, 32 and 16 μg/ml, 4 hr), around 3 log. Moreover, the “effect of pluronic on activity” value was “no effect in activity” in test [1] (lower SP concentrations (1, 2.5 mM)) and “No effect” in test [2] (32 μ/ml, 0.25 wt % pluronic, either SP buffer concentration). Also, the survival entry in test [3] (50 μg/ml, 100 mM sodium phosphate buffer pH 7.4, all time points 0-24 hours) is recorded as “no survival”. Moreover, the “Bacterial growth, Buffer and L-indolicidin 50 μg/ml” value in test [3] (incubation time 0 hr) and in test [3] (incubation time 24 hr) was 0 each time.
